The values that follow come from patent US10259712B2, “Method of stabilizing compounds in water, water compositions thereby, and articles containing said water compositions” (priority 2015, dated 2019).

The conditions of series [1]: 58° C. How it is done:
Continuous experiments on the relative stabilization of hydrogen peroxide with different aqueous carriers, that is, types of water, including dioxytetrahydride gas-infused water, were carried out.
Very low concentrations of hydrogen peroxide (1.2 weight %) was added to the various aqueous carriers and measured for percent absorption by potassium permanganate titration.
The samples were tested on day 1, 20, 27 and 34. The tests were accelerated in aging when the temperature of each water sample was maintained at 58° C., approximating close to two years of stabilization.

The conditions of series [2]: initial 50 ppm. The text has this:
Peroxide test strips supplied by Indigo® Instruments, Part #33815-P100 (referred as “peroxide test strips” or “test strip” herein) were used to determine the amount of hydrogen peroxide in either distilled water or in water infused with dioxytetrahydride gas (referred as “dioxytetrahydride gas-infused water” or “ultra-pure polarized water” herein). Test Strips are capable of measuring peroxide concentrations between 1 and 100 ppm (parts per million). A peroxide test strip was first submerged into 3% water solution of hydrogen peroxide obtained from a drugstore for home use.
A peroxide test strip was submerged into a clear PET-1 bottle (0.5 liter) of distilled water produced by Crystal Springs and another clear PET-1 bottle (0.5 liter) of dioxytetrahydride gas-infused water manufactured by AquaNew, LLC, Sarasota, Fla., respectively. The water produced by AquaNew is highly purified resulting from at least six (6) stages of treatment to obtain on or about 0.3 ppm of Total Dissolved Solids (pharmaceutical-grade water). […] Ten (10) drops of peroxide were added into each sample bottle and a test strip was dipped into each bottle and each bottle was immediately recapped. […] Both bottles with closures were left on a shelf in open light conditions under climate controlled conditions with no direct sunlight.
After two weeks, a test strip was dipped into each bottle and the bottle was immediately recapped. […] The two bottles with closures were placed back onto the shelf.
After four (4) months, another test strip was dipped into each bottle and the bottles were immediately recapped.

Series [3] is described as follows: Accelerated ageing of chlorine dioxide in aqueous carriers, 75 days at 50° C. It is filed as physicochemical. How it is done: A series of dilutions were set up and aged for 75 days at 50° C., (approximately two years of stability of this solution) that creates chlorine dioxide. A solution of chlorine dioxide at a concentration of 0.4 ppm was separately added to dioxytetrahydride gas-infused water and a second sample in tap water. The samples were aged for 75 days at 50° C. Prior to testing the concentration of chlorine dioxide of each sample, a control of chlorine dioxide at a concentration of 0.4 ppm in water was prepared. The concentration of chlorine dioxide measured in the two samples after aging, was 0.4 ppm for the dioxytetrahydride gas-infused water and 0.2 ppm for tap water.
The same protocol was performed on 0.2 ppm concentration of chlorine dioxide and the test results were 0.2 ppm for the dioxytetrahydride gas-infused water and 0.0 ppm in tap water.

Setting [4] is: in dioxytetrahydride gas-infused water, throughout the 34 days, initial 1.2 weight %.

The structures appear in SMILES notation. Where two headings read alike, the source gives them in different places.

On to `OO` [hydrogen peroxide], for which the hydrogen peroxide concentration in series [1] (setting [4]) is recorded as 1.2%; in series [1] (in tap water, day 20, initial 1.2%) it was 0.4%; in series [1] (in tap water, day 34, initial 1.2%), “below 0.2%”. In addition, the percent absorption in series [1] (setting [4]) is on record as approximately 100%. For the same compound, the peroxide concentration in series [2] (in dioxytetrahydride gas-infused water, after four (4) months) was determined as 50 ppm; in series [2] (in dioxytetrahydride gas-infused water, after two weeks, clear PET-1 bottle on shelf in open light), 50 ppm; in series [2] (in distilled water, after four (4) months), 30 ppm; in series [2] (in distilled water, after two weeks, clear PET-1 bottle on shelf in open light), 30 ppm.

In the case of `[O][Cl+][O-]` [chlorine dioxide], the “concentration of chlorine dioxide after aging” value in series [3] (in dioxytetrahydride gas-infused water, initial 0.2 ppm) turned out to be 0.2 ppm; in series [3] (in dioxytetrahydride gas-infused water, initial 0.4 ppm), 0.4 ppm; in series [3] (in tap water, initial 0.2 ppm), 0.0 ppm; in series [3] (in tap water, initial 0.4 ppm), 0.2 ppm.
